Experimental findings from patent US7547712B2 (priority 2006, dated 2009) are described below.

For the series, the system named is New Zealand White rabbits. As to conditions: rabbit, in vivo, sc. Here is the method:
100 female New Zealand White rabbits were tested according to the study design detailed below (Table 2). The vehicle/adjuvant and test article were administered via intramuscular injection. […] The pumps were surgically implanted subcutaneously. The dose volume of the test article and vehicle was 0.5 ml/kg. The dose rate of the pumps was approximately 5 μl/hr.
The test article and vehicle/adjuvant formulations were administered to the study animals once at 30 days prior to gestation, once at 9 days prior to gestation, and once on day 12 of gestation.

Regarding `CN1CCCC1c1cccnc1` (stereo not drawn) [Nicotine], the gestation food consumption result was “significantly decreased” and the maternal body weight entry was “decrease in maternal body weight”. Where the note is “female, New Zealand White”, this compound displayed a Mortality of 3. Also, where the note is “female”, the “Number of Does: Abortion” value was 5, the “Number of Does: Found dead/euthanized in extremis” value is 2, the “Number of Does: No. Delivered” value was determined as 11 and the “Number of Does: No. Survived Day 28” value amounted to 6. Besides, where the note is “female”, the “Number of Does: No. whole litters dead” value turned out to be 4, the “Number of Does: Not Pregnant” value amounted to 2, the “Number of Kits (Mean) LD 0-7” value amounted to 47.8 and the “Number of Kits (Mean) LD 7-14” value worked out at 100.0. For the setting “female”, the “Number of Kits (Mean) LD 14-21” value is recorded as 100.0; the “Number of Kits (Mean) LD 21-28” value worked out at 100.0; the “mean lactation index, representing kit survival from lactation day 0-7” value is on record as 47.8%; the “mean number of kits born” value amounted to 6.8 kits/liter.
